Measured values taken from article PMC6127852 (Journal of Enzyme Inhibition and Medicinal Chemistry, 2018).
≈ marks a conversion by molar mass, not a printed value.

Experiments:
S. aureus ATCC 25923 = experiment: Broth microdilution MIC, S. aureus ATCC 25923; assay type: cell-based; conditions: Staphylococcus aureus, ATCC25923; Table S2
How it was run: (§1)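 Cation (Ca2+/Mg2+)-adjusted Mueller–Hinton broth, standard CLSI broth microdilution. MIC determined per strain, tested in triplicate.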

polyA-polyU [1] = experiment: Thermal melting (ΔTm) of polyA-polyU; assay type: binding; conditions: for ΔTm, polyA-polyU, r = 0.1: PBS, pH 7
How it was run: (§2)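 UV melting monitored at 260 nm in 1 cm cuvettes, ligand absorbance subtracted and normalised; ΔTm = Tm(complex) − Tm(free nucleic acid), mean of at least two runs, error ±0.5 °C. Compound tested at r = 0.1, 0.3, 0.5 and 0.7 eq ([compound]/[polynucleotide]) with ctDNA and polyA-polyU.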

S. aureus MRSA = experiment: Broth microdilution MIC, MRSA clinical strain; assay type: cell-based; conditions: Staphylococcus aureus, antibiotic-resistant clinical strain
How it was run: (§3)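 MICs were set by CLSI broth microdilution in cation (Ca2+, Mg2+)-adjusted Mueller–Hinton broth, in triplicate. Panel: S. aureus ATCC 25923, MRSA, MSSA, E. faecalis, VRE E. faecium, E. coli ATCC 25925, P. aeruginosa ATCC 27853, A. baumannii ATCC 19606 and ESBL K. pneumoniae ATCC 27736.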

K. pneumonia ATCC 700803 = experiment: Broth microdilution MIC, K. pneumoniae ATCC 700803; assay type: cell-based; conditions: Klebsiella pneumoniae, ATCC700803; Table S2
How it was run: as §1

S. aureus MSSA = experiment: Broth microdilution MIC, MSSA clinical strain; assay type: cell-based; conditions: Staphylococcus aureus
How it was run: as §3

[2] = system: bloodstream form T. brucei (strain 221); experiment: Anti-trypanosomal screening, resazurin; assay type: cell-based; conditions: Trypanosoma brucei, mean of triplicate ± SEM
How it was run: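 Parasites grown in modified Iscove's medium with compound in triplicate; resazurin added at 48 h and plates read after a further 16 h.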

A. baumannii ATCC 19606 = experiment: Broth microdilution MIC, A. baumannii ATCC 19606; assay type: cell-based; conditions: Acinetobacter baumannii, ATCC19606; Table S2
How it was run: as §1

E. faecium VRE = experiment: Broth microdilution MIC, VRE clinical strain; assay type: cell-based; conditions: Enterococcus faecium
How it was run: as §3

[3] = system: polyA-polyU (RNA, polymer) A/U; experiment: UV melting at 260 nm; conditions: PBS, I = 0.05 M, cations not specified, pH 7, r = 0.3 [compound]/[polynucleotide]
P. aeruginosa ESBL = experiment: Broth microdilution MIC, ESBL P. aeruginosa clinical strain; assay type: cell-based; conditions: Pseudomonas aeruginosa
E. coli ESBL = experiment: Broth microdilution MIC, ESBL E. coli clinical strain; assay type: cell-based; conditions: Escherichia coli
P. aeruginosa ATCC 27853 = experiment: Broth microdilution MIC, P. aeruginosa ATCC 27853; assay type: cell-based; conditions: Pseudomonas aeruginosa, ATCC27853; Table S2
How it was run: as §1

E. faecalis ATCC 29212 = experiment: Broth microdilution MIC, E. faecalis ATCC 29212; assay type: cell-based; conditions: Enterococcus faecalis, ATCC29212; Table S2
How it was run: as §1

calf thymus ctDNA = experiment: UV–Vis titration with ctDNA (Scatchard); assay type: binding; conditions: PBS, pH 7; for Hypochromic effect H/%, ctDNA: UV–Vis titration, calculated by Scatchard equation; for log Ks, ctDNA: binding constant, Scatchard
How it was run: (§4)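 Polynucleotides titrated into compound at 1.48 × 10^−5 mol dm^−3 in PBS (I = 0.05 mol dm^−3, pH 7.0), with UV–Vis spectra in 1 cm quartz cells; ctDNA sonicated and filtered, concentration as nucleobases. Ks and n from Scatchard analysis, in some cases only from data at r ≥ 0.1.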

[4] = system: polyG-polyC (polyC-polyG) (RNA, polymer) G/C; experiment: UV-Vis titration, Scatchard; conditions: PBS, I = 0.05 M (Table 1 says I = 0.015 M), cations not specified, I = 0.015 M (Methods: 0.05 M), pH 7, per base
[5] = system: polyA-polyU (RNA, polymer) A/U; experiment: UV-Vis titration, Scatchard; conditions: PBS, I = 0.05 M (Table 1 says I = 0.015 M), cations not specified, I = 0.015 M (Methods: 0.05 M), pH 7, per base
E. coli ATCC 25925 = experiment: Broth microdilution MIC, E. coli ATCC 25925; assay type: cell-based; conditions: Escherichia coli, ATCC25925; Table S2
How it was run: as §1

polyA-polyU [6] = experiment: UV–Vis titration with polyA-polyU (Scatchard); assay type: binding; conditions: PBS, pH 7; for Hypochromic effect H/%, polyA-polyU: UV–Vis titration, calculated by Scatchard equation; for log Ks, polyA-polyU: binding constant, Scatchard
How it was run: as §4

K. pneumoniae ESBL = experiment: Broth microdilution MIC, ESBL K. pneumoniae clinical strain; assay type: cell-based; conditions: Klebsiella pneumoniae
Experimental: The compounds were evaluated for their in vitro anti-bacterial activity against Gram-positive bacteria: S. aureus (ATCC 25923), MRSA, methicillin-sensitive S. aureus (MSSA), E. faecalis, vancomycin-resistant E. faecium (VREF), and Gram-negative bacteria: E. coli (ATCC 25925), P. aeruginosa (ATCC 27853), A. baumannii (ATCC 19606) and ESBL-producing K. pneumoniae (ATCC 27736). Standard broth microdilution method as recommended in guidelines of Clinical and Laboratory Standards Institute[61] ^, [65] ^, [66] was applied and the minimum inhibitory concentration (MIC) of compounds was tested. In short, testing was performed in U-bottomed 96-well sterile plastic microdilution trays (Falcon 3077, Becton Dickinson Labware, Franklin Lakes, NJ) in cation (Ca^2+ and Mg^2+) adjusted Mueller–Hinton broth medium (Becton Dickinson and Co., Cockeysville, MD). All testings were performed in triplicate.

ctDNA = experiment: Thermal melting (ΔTm) of ctDNA; assay type: binding, calf; conditions: PBS, pH 7; for ΔTm, ctDNA, r = 0.3: r = [compound]/[polynucleotide] 0.3, error ±0.5 °C
How it was run: as §2

polyC-polyG = experiment: UV–Vis titration with polyC-polyG (Scatchard); assay type: binding; conditions: PBS, pH 7; for log Ks, polyC-polyG: binding constant, Scatchard
How it was run: as §4

[7] = r = 0.3, first melting midpoint

SMILES	MIC (S. aureus ATCC 25923) [µg/mL]	ΔTm, polyA-polyU, r = 0.1 (polyA-polyU [1]) [°C]	ΔTm, polyA-polyU, r = 0.3 (polyA-polyU [1]; [7]) [°C]	MIC (S. aureus MRSA) [µg/mL]	MIC (K. pneumonia ATCC 700803) [µg/mL]	MIC (S. aureus MSSA) [µg/mL]	IC50 [2] [µM]	IC90 [2] [µM]	MIC (A. baumannii ATCC 19606) [µg/mL]	MIC (E. faecium VRE) [µg/mL]	MIC (P. aeruginosa ESBL) [µg/mL]	MIC (E. coli ESBL) [µg/mL]	MIC (P. aeruginosa ATCC 27853) [µg/mL]	MIC (E. faecalis ATCC 29212) [µg/mL]	Hypochromic effect H/%, ctDNA (calf thymus ctDNA) [%]	log Ks, ctDNA (calf thymus ctDNA)	log Ks [4]	log Ks [5]	MIC (E. coli ATCC 25925) [µg/mL]	Hypochromic effect H/%, polyA-polyU (polyA-polyU [6]) [%]	other results
N=C(N)c1ccc2[nH]c(-c3ccc(OCc4cn(Cc5ccccc5)nn4)cc3)nc2c1 [Compound 7d]	32 (≈ 75.6 µM)	2.06	1.14	16 (≈ 37.8 µM)	64 (≈ 151 µM)	32 (≈ 75.6 µM)	12.9 ± 0.2	18.2 ± 1	> 256	32 (≈ 75.6 µM)	32 (≈ 75.6 µM)	16 (≈ 37.8 µM)	32 (≈ 75.6 µM)	64 (≈ 151 µM)	40.4	5.78	6.56	5.94	32 (≈ 75.6 µM)	32.5	ΔTm ([3]; error ±0.5, per base): 1.14 °C; log Ks, polyA-polyU (polyA-polyU [6]): 5.94; MIC (K. pneumoniae ESBL): 16 µg/mL (≈ 37.8 µM); ΔTm, ctDNA, r = 0.5 (ctDNA): 3.86 °C; ΔTm, ctDNA, r = 0.7 (ctDNA): 3.62 °C; ΔTm, ctDNA, r = 0.3 (ctDNA): 3.12 °C; log Ks, polyC-polyG (polyC-polyG): 6.56
Cl.Cl.N=C(N)c1ccc2[nH]c(-c3ccc(OCc4cn(CSc5ccccc5)nn4)cc3)nc2c1 [Compound 7e, 2–(4-((1-((Phenylthio)methyl)-1H-1,2,3-triazol-4-yl)methoxy)phenyl)-1H-benz[d]imidazole-5-carboximidamide dihydrochloride]	32	0.39	1.11	32	128	128	10.2 ± 1.3	15.9 ± 0.4	> 256	64	32	32	64	128	38.2	5.33	5.89	6.20	32	31.7	ΔTm, polyA-polyU, r = 0.3, second melting midpoint (polyA-polyU [1]; r = 0.3, footnote c: biphasic melting curve): 12.58^c °C; ΔTm, polyA-polyU, r = 0.5 (polyA-polyU [1]; r = 0.5, first melting midpoint): 1.11 °C; ΔTm, polyA-polyU, r = 0.5, second melting midpoint (polyA-polyU [1]; r = 0.5, footnote c: biphasic melting curve): 15.04^c °C; ΔTm ([3]; error ±0.5, biphasic, second midpoint 12.58, per base): 1.11 °C; melting point: 173 to 176 °C; log Ks, polyA-polyU (polyA-polyU [6]): 6.20; MIC (K. pneumoniae ESBL): 16 µg/mL; ΔTm, ctDNA, r = 0.5 (ctDNA): 2.62 °C; ΔTm, ctDNA, r = 0.7 (ctDNA): 2.66 °C; ΔTm, ctDNA, r = 0.3 (ctDNA): 2.19 °C; Hypochromic effect H/%, polyC-polyG (polyC-polyG; UV–Vis titration, calculated by Scatchard equation): 5.79%; log Ks, polyC-polyG (polyC-polyG): 5.89
